Laboratory results from PubChem BioAssay (NCI).
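48-hour exposure; five concentrations; linearly interpolated endpoints. The concentration for full growth arrest is given as TGI.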

Legend:
Experiment in all cases: inhibition of tumour cell growth, NCI panel, 48 h
[1] = test system: 786-0 renal
[2] = test system: A498 renal
[3] = test system: A549 NSCLC
[4] = test system: ACHN renal
[5] = test system: CAKI-1 renal
[6] = test system: CCRF-CEM leukemia
[7] = test system: COLO 205 colon
[8] = test system: DLD-1 colon
[9] = test system: DMS 273 small cell lung
[10] = test system: EKVX NSCLC
[11] = test system: HCC-2998 colon
[12] = test system: HCT-116 colon
[13] = test system: HCT-15 colon
[14] = test system: HL-60(TB) leukemia
[15] = test system: HOP-18 NSCLC
[16] = test system: HOP-62 NSCLC
[17] = test system: HT29 colon
[18] = test system: IGROV1 ovarian
[19] = test system: K-562 leukemia
[20] = test system: KM12 colon
[21] = test system: KM20L2 colon
[22] = test system: LOX IMVI melanoma
[23] = test system: LXFL 529 NSCLC
[24] = test system: M14 melanoma
[25] = test system: M19-MEL melanoma
[26] = test system: MALME-3M melanoma
[27] = test system: MOLT-4 leukemia
[28] = test system: NCI-H226 lung
[29] = test system: NCI-H23 lung
[30] = test system: NCI-H460 lung
[31] = test system: NCI-H522 lung
[32] = test system: OVCAR-3 ovarian
[33] = test system: OVCAR-4 ovarian
[34] = test system: OVCAR-5 ovarian
[35] = test system: OVCAR-8 ovarian
[36] = test system: RXF 393 renal
[37] = test system: SF-268 CNS
[38] = test system: SF-295 CNS
[39] = test system: SF-539 CNS
[40] = test system: SK-MEL-2 melanoma
[41] = test system: SK-MEL-28 melanoma
[42] = test system: SK-MEL-5 melanoma
[43] = test system: SK-OV-3 ovarian
[44] = test system: SN12C renal
[45] = test system: SNB-19 CNS
[46] = test system: SNB-75 CNS
[47] = test system: SNB-78 CNS
[48] = test system: SR leukemia
[49] = test system: SW-620 colon
[50] = test system: TK-10 renal
[51] = test system: U251 CNS
[52] = test system: UACC-257 melanoma
[53] = test system: UACC-62 melanoma
[54] = test system: UO-31 renal
[55] = test system: XF 498 CNS
[56] = test system: HOP-92 NSCLC
[57] = test system: RPMI-8226 leukemia
[58] = test system: DMS 114 small cell lung

C[O+]=c1cccc2ssnc1-2
TGI [1]: > 100 µM
TGI [2]: > 100 µM
TGI [3]: > 100 µM
TGI [4]: > 100 µM
TGI [5]: > 100 µM
TGI [6]: > 10 µM
TGI [7]: > 100 µM
TGI [8]: > 100 µM
TGI [9]: > 100 µM
TGI [10]: > 100 µM
TGI [11]: > 100 µM
TGI [12]: > 100 µM
TGI [13]: > 100 µM
TGI [14]: 69.6 µM
TGI [15]: > 100 µM
TGI [16]: > 100 µM
TGI [17]: > 100 µM
TGI [18]: > 100 µM
TGI [19]: 91.6 µM
TGI [20]: > 100 µM
TGI [21]: > 100 µM
TGI [22]: > 100 µM
TGI [23]: > 100 µM
TGI [24]: > 100 µM
TGI [25]: 69.3 µM
TGI [26]: > 100 µM
TGI [27]: 96.1 µM
TGI [28]: > 100 µM
TGI [29]: > 100 µM
TGI [30]: > 100 µM
TGI [31]: > 10 µM
TGI [32]: > 100 µM
TGI [33]: > 100 µM
TGI [34]: > 100 µM
TGI [35]: 74.1 µM
TGI [36]: > 100 µM
TGI [37]: > 100 µM
TGI [38]: > 100 µM
TGI [39]: > 100 µM
TGI [40]: > 100 µM
TGI [41]: > 100 µM
TGI [42]: 58.7 µM
TGI [43]: > 100 µM
TGI [44]: > 100 µM
TGI [45]: > 100 µM
TGI [46]: > 100 µM
TGI [47]: > 100 µM
TGI [48]: 64.8 µM
TGI [49]: 70.6 µM
TGI [50]: > 100 µM
TGI [51]: > 10 µM
TGI [52]: 88.5 µM
TGI [53]: 58.8 µM
TGI [54]: 98 µM
TGI [55]: 43.1 µM

O=C(OCc1ccccc1)N1N=NC2C1C1CC(OCc3ccccc3)(OCc3ccccc3)C2O1 (centres undefined)
TGI [1]: > 100 µM
TGI [2]: > 100 µM
TGI [3]: > 100 µM
TGI [4]: > 100 µM
TGI [5]: > 100 µM
TGI [6]: > 100 µM
TGI [7]: > 100 µM
TGI [8]: > 100 µM
TGI [9]: > 100 µM
TGI [11]: > 100 µM
TGI [13]: > 100 µM
TGI [14]: > 100 µM
TGI [15]: > 100 µM
TGI [16]: > 100 µM
TGI [56]: > 100 µM
TGI [17]: > 100 µM
TGI [18]: > 100 µM
TGI [19]: > 100 µM
TGI [20]: > 100 µM
TGI [21]: > 100 µM
TGI [22]: > 100 µM
TGI [23]: > 100 µM
TGI [24]: > 100 µM
TGI [25]: > 100 µM
TGI [26]: > 100 µM
TGI [27]: > 100 µM
TGI [28]: > 100 µM
TGI [29]: > 100 µM
TGI [30]: > 100 µM
TGI [32]: > 100 µM
TGI [33]: > 100 µM
TGI [34]: > 100 µM
TGI [57]: > 100 µM
TGI [36]: > 100 µM
TGI [37]: > 100 µM
TGI [38]: > 100 µM
TGI [39]: > 100 µM
TGI [40]: > 100 µM
TGI [41]: > 100 µM
TGI [42]: > 100 µM
TGI [43]: > 100 µM
TGI [44]: > 100 µM
TGI [46]: > 100 µM
TGI [47]: > 100 µM
TGI [49]: > 100 µM
TGI [51]: > 100 µM
TGI [52]: > 100 µM
TGI [53]: > 100 µM
TGI [54]: > 100 µM
TGI [55]: > 100 µM

Cn1nc(-c2ccccc2)c(C(=O)/C=C/c2ccc(F)cc2)c(N2CCCC2)c1=O
TGI [1]: 31.2 µM
TGI [3]: > 100 µM
TGI [4]: 62.8 µM
TGI [5]: 61.9 µM
TGI [6]: 27.8 µM
TGI [7]: 32.1 µM
TGI [8]: 39.4 µM
TGI [58]: 29.1 µM
TGI [9]: 83.3 µM
TGI [10]: 52.9 µM
TGI [12]: 20.5 µM
TGI [13]: 70 µM
TGI [14]: 23.2 µM
TGI [15]: 31.8 µM
TGI [56]: 36.3 µM
TGI [17]: 15.3 µM
TGI [18]: 50.5 µM
TGI [19]: 38.5 µM
TGI [21]: 28.3 µM
TGI [22]: > 100 µM
TGI [23]: 32.1 µM
TGI [24]: 37.4 µM
TGI [25]: 33.8 µM
TGI [27]: 31.3 µM
TGI [29]: 32.7 µM
TGI [30]: 91.7 µM
TGI [31]: 20.7 µM
TGI [35]: > 100 µM
TGI [57]: 30.5 µM
TGI [36]: 22.1 µM
TGI [37]: 51 µM
TGI [39]: 28 µM
TGI [41]: 32.8 µM
TGI [42]: 26.9 µM
TGI [43]: 59.1 µM
TGI [44]: > 100 µM
TGI [45]: 48.6 µM
TGI [49]: 37.1 µM
TGI [50]: 71.4 µM
TGI [51]: 29.2 µM
TGI [53]: 38.4 µM
TGI [55]: 54.2 µM

O=C(/C=C/c1ccccc1F)c1ccc([N+](=O)[O-])cc1
TGI [1]: > 100 µM
TGI [3]: > 100 µM
TGI [4]: > 100 µM
TGI [5]: 85.4 µM
TGI [7]: > 100 µM
TGI [8]: 39.1 µM
TGI [58]: 44 µM
TGI [9]: > 100 µM
TGI [10]: > 100 µM
TGI [11]: 30.3 µM
TGI [13]: 43.8 µM
TGI [15]: > 100 µM
TGI [16]: > 100 µM
TGI [56]: 45.5 µM
TGI [17]: 39.9 µM
TGI [18]: 63.9 µM
TGI [19]: 34.8 µM
TGI [21]: > 100 µM
TGI [22]: 15.5 µM
TGI [23]: 40.7 µM
TGI [24]: 72.6 µM
TGI [25]: 50.5 µM
TGI [26]: 70 µM
TGI [29]: > 100 µM
TGI [30]: 93 µM
TGI [32]: 77.9 µM
TGI [33]: 89.7 µM
TGI [35]: 73.5 µM
TGI [36]: 49.8 µM
TGI [37]: > 100 µM
TGI [38]: 75.6 µM
TGI [41]: 43.2 µM
TGI [43]: > 100 µM
TGI [44]: > 100 µM
TGI [46]: 42.6 µM
TGI [47]: > 100 µM
TGI [49]: 84 µM
TGI [50]: > 100 µM
TGI [51]: 31.1 µM
TGI [53]: 81.2 µM
TGI [54]: 39.8 µM
TGI [55]: 58.9 µM
